Assay results published in ChEMBL document CHEMBL3627615, “Discovery of the disubstituted oxazole analogues as a novel class anti-tuberculotic agents against MDR- and XDR-MTB” (Bioorg Med Chem Lett, 2015).
Converted amounts (≈) assume the structure as drawn.

Experiments:
[1] = system: Mycobacterium tuberculosis; assay: Antimycobacterial activity against multidrug-resistant Mycobacterium tuberculosis FJ05120 after 3 to 4 weeks by microplate alamar blue assay; assay type: functional
[2] = system: Mycobacterium tuberculosis; assay: Antimycobacterial activity against extensively drug-resistant Mycobacterium tuberculosis FJ05195 after 3 to 4 weeks by microplate alamar blue assay; assay type: functional

| Structure (SMILES) | MIC90 [1] [µg/mL] | MIC90 [2] [µg/mL] |
| --- | --- | --- |
| COc1ccc(C(=O)C2CCN(Cc3coc(-c4ccc(F)cc4)n3)CC2)cc1OC | 16 (≈ 37.7 µM) | 16 (≈ 37.7 µM) |
| O=C(c1ccc2c(c1)OCCO2)C1CCN(Cc2coc(-c3ccc(F)cc3)n2)CC1 | 8 (≈ 18.9 µM) | 8 (≈ 18.9 µM) |
| O=C(c1ccc2c(c1)OCCO2)C1CCN(Cc2coc(-c3ccc(Cl)cc3)n2)CC1 | 8 (≈ 18.2 µM) | 4 (≈ 9.11 µM) |
| O=C(c1ccc2c(c1)OCCO2)C1CCN(Cc2coc(-c3ccc(Br)cc3)n2)CC1 | 8 (≈ 16.6 µM) | 8 (≈ 16.6 µM) |
| O=C(c1ccc2c(c1)OCCO2)C1CCN(Cc2coc(-c3ccccc3)n2)CC1 | 8 (≈ 19.8 µM) | 8 (≈ 19.8 µM) |
| O=C(c1ccc2c(c1)OCCO2)C1CCN(Cc2coc(-c3ccc(C(F)(F)F)cc3)n2)CC1 | 64 (≈ 135 µM) | 64 (≈ 135 µM) |
| O=C(c1ccc2c(c1)OCCO2)C1CCN(Cc2coc(-c3ccc(F)c(F)c3)n2)CC1 | 8 (≈ 18.2 µM) | 8 (≈ 18.2 µM) |
| O=C(c1ccc2c(c1)OCCO2)C1CCN(Cc2coc(-c3ccccc3F)n2)CC1 | 16 (≈ 37.9 µM) | 8 (≈ 18.9 µM) |
| O=C(c1ccc2c(c1)OCCO2)C1CCN(Cc2coc(-c3cccc(F)c3)n2)CC1 | 16 (≈ 37.9 µM) | 8 (≈ 18.9 µM) |
| COc1ccc(-c2nc(CN3CCC(C(=O)c4ccc5c(c4)OCCO5)CC3)co2)cc1 | 8 (≈ 18.4 µM) | 4 (≈ 9.21 µM) |
| Cc1ccc(-c2nc(CN3CCC(C(=O)c4ccc5c(c4)OCCO5)CC3)co2)cc1 | 64 (≈ 153 µM) | 64 (≈ 153 µM) |
| CC(C)(C)c1ccc(-c2nc(CN3CCC(C(=O)c4ccc5c(c4)OCCO5)CC3)co2)cc1 | 2 (≈ 4.34 µM) | 1 (≈ 2.17 µM) |
| O=C(c1ccc2c(c1)OCCO2)C1CCN(Cc2coc(-c3cccnc3)n2)CC1 | 32 (≈ 78.9 µM) | 32 (≈ 78.9 µM) |
| O=C(c1ccc2c(c1)OCCO2)C1CCN(Cc2coc(-c3ccco3)n2)CC1 | 32 (≈ 81.1 µM) | 32 (≈ 81.1 µM) |
| O=C(c1ccc2c(c1)OCCO2)C1CCN(Cc2coc(-c3ccoc3)n2)CC1 | 32 (≈ 81.1 µM) | 64 (≈ 162 µM) |
| O=C(c1ccc2c(c1)OCCO2)C1CCN(Cc2csc(-c3ccc(Cl)cc3)n2)CC1 | > 128 | > 128 |
| CC(C)(C)c1ccc(-c2nc(CN3CCC(C(=O)c4ccc5c(c4)OCCO5)CC3)cs2)cc1 | > 128 | > 128 |
| O=C(c1ccc2c(c1)OCCO2)C1CCN(Cc2cc(-c3ccc(F)cc3)on2)CC1 | > 128 | > 128 |
| O=C(c1ccc2c(c1)CCCC2)C1CCN(Cc2coc(-c3ccc(F)cc3)n2)CC1 | 4 (≈ 9.56 µM) | 4 (≈ 9.56 µM) |
| O=C(c1ccc(F)c(F)c1)C1CCN(Cc2coc(-c3ccc(F)cc3)n2)CC1 | 8 (≈ 20 µM) | 8 (≈ 20 µM) |
| O=C(c1ccccc1)C1CCN(Cc2coc(-c3ccc(F)cc3)n2)CC1 | 4 (≈ 11 µM) | 4 (≈ 11 µM) |
| Cc1ccc(C(=O)C2CCN(Cc3coc(-c4ccc(F)cc4)n3)CC2)cc1C | 8 (≈ 20.4 µM) | 8 (≈ 20.4 µM) |
| Cc1ccc(C(=O)C2CCN(Cc3coc(-c4ccc(F)cc4)n3)CC2)cc1 | 16 (≈ 42.3 µM) | 8 (≈ 21.1 µM) |
| COc1ccc(C(=O)C2CCN(Cc3coc(-c4ccc(F)cc4)n3)CC2)cc1 | 8 (≈ 20.3 µM) | 8 (≈ 20.3 µM) |
| CC(C)(C)c1ccc(-c2nc(CN3CCC(C(=O)c4ccc5c(c4)CCCC5)CC3)co2)cc1 | 4 (≈ 8.76 µM) | 4 (≈ 8.76 µM) |
| CC[C@@H](CO)NCCN[C@@H](CC)CO [ETHAMBUTOL] | 1 (≈ 4.89 µM) | 8 (≈ 39.2 µM) |
| NNC(=O)c1ccncc1 [ISONIAZID] | 1 (≈ 7.29 µM) | 4 (≈ 29.2 µM) |
| CO[C@H]1/C=C/O[C@@]2(C)Oc3c(C)c(O)c4c(O)c(c(/C=N/N5CCN(C)CC5)c(O)c4c3C2=O)NC(=O)/C(C)=C\C=C\[C@H](C)[C@H](O)[C@@H](C)[C@@H](O)[C@@H](C)[C@H](OC(C)=O)[C@@H]1C [RIFAMPIN] | > 256 | > 256 |
| CN[C@@H]1[C@H](O[C@H]2[C@H](O[C@H]3[C@H](O)[C@@H](O)[C@H](N=C(N)N)[C@@H](O)[C@@H]3N=C(N)N)O[C@@H](C)[C@]2(O)C=O)O[C@@H](CO)[C@H](O)[C@H]1O [STREPTOMYCIN] | < 0.5 | 64 (≈ 110 µM) |
